According to PMC3973950, “Synthesis of 5-arylidine amino-1,3,4-thiadiazol-2-[(N-substituted benzyol)]sulphonamides endowed with potent antioxidants and anticancer activity induces growth inhibition in HEK293, BT474 and NCI-H226 cells” (Medicinal Chemistry Research, 2013):

Tests used:
[1] = tested on: root meristem cells of Allium cepa; test: In vitro antimitotic activity and cytogenetic analysis, Allium cepa meristem root model; format: cell-based; conditions: for Aberrant cells (%) ± SEM / Chromosome breaks (%) ± SEM / MNC (‰) ± SEM (micronuclei per 1,000 cells) / Polar deviations (%) ± SEM / Stickiness (%) ± SEM / MI (%) ± SEM (mitotic index): compounds 1 mg/mL, PC (EMS) 2 × 10^−2 M; for MI (%) ± SEM (mitotic index): lower MI = higher activity, negative control 6.22
Description: Small bulbs (1.5–2.0 cm in diameter) of the common onion, A. cepa (2n = 16), were purchased from vendor at a local market. Prior to initiating the test, the outer scales of the bulbs and the dry bottom plate were removed without destroying the root primordia. The roots of A. cepa were grown in distilled water in Erlenmeyer flasks (200 mL capacity) under laboratory conditions (dark 24 °C). For each synthesized compound sample, after reaching a length of 3 cm (±0.5 cm), a series of six bulbs were placed in distilled water (pH 7.3) for 48 h and then onion roots were treated with the synthesized compound at 1 mg/mL concentrations of each tested compound. The test tubes were kept in an incubator at 22 ± 1 °C, and the test samples were changed daily at the same time. Several of the newly formed root tips were then cut from each bulb and examined for any visible morphological abnormalities. The bulbs with satisfactory root lengths (2–2.5 cm) were used in the study, while those with exceptionally long or short roots were discarded (on average 2–3 bulbs). Therefore, individual sets of five bulbs were used for each extract sample.
Distilled water (pH 7.3) was used as a negative control, and EMS (2 × 10^−2 M) used as a positive control mutagen (Fiskesjo, [1993], [1997]). After 24 h of exposure, several root tips were removed from the bulbs, fixed in 3:1 (v/v) ethanol (90 %)/glacial acetic acid (45 %) and stored overnight at 4 °C. The next day, they were placed in 70 % (v/v) aqueous alcohol and refrigerated until used. Allium roots were softened by digesting with HCl and rinsed the roots in water. After removing the water from the third rinse, the roots were covered with the orcein acetate stain. The roots were incubated in the stain for 12 min. During this time, the very tip of the root begins to turn red as the DNA stains the numerous small actively dividing cells at the tip. A root was transferred to the centre of a clean microscope slide, and a drop of water was added. Using a razor blade most of the unstained part of the root was cut off and discarded. The root tip was covered with a cover slip and then carefully pushed down on the cover slide with the wooden end of a dissecting probe. […] The root tip should spread out to a diameter about 0.5–1 cm. Five slides were prepared per bulb.
The following parameters were used for the determination of cytotoxicity and genotoxicity: • (i) the mitotic index (MI) was calculated as the ratio between the number of mitotic cells and the total number of cells scored and expressed as percentage using following formula as per standard procedures. Mitoticindex=Numberofdividingcells/Totalnumberofcells×100 • (ii) Chromatin aberrations (stickiness, breaks and polar deviation) were used as end points for the determination of cytogenetic effects, and micronuclei (MNC) were scored in interphase cells per 1,000 cells (‰ MNC) (Freshney, [2000]). • (iii) The most frequent abnormalities are shown in microphotographs. After 72 h of exposure to the test samples, the root lengths were measured and used as an index of general toxicity. The results for mitotic index and root length are expressed as percentage of the negative and positive controls. Visible morphological modifications, such as changes in root consistency and colour as well as the presence of swelling (c-tumours), hooks or twists in the roots, were also observed.

[2] = In vitro cytotoxicity by MTT assay, NCI-H226; format: cell-based; conditions: human, NCI-H226 lung cancer cells, 0.015 μM, read-out: % Cytotoxicity (100 − % cell survival) of NCI-H226 cell line
In short: (§1)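 Monolayers seeded at […] (about 10,000 per well) were treated after 24 h with the synthesized compounds and incubated three days. Viability was taken from MTT reduction, with formazan measured at 490 nm.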

[3] = Lipid peroxidation inhibitory activity (egg lecithin liposomes, TBA); format: biochemical; conditions: Conc. ± SD; standard ascorbic acid; read-out: IC50 inhibitory concentration, Lipid peroxidation
Description: Egg lecithin (3 mg/mL phosphate buffer, pH 7.4) was sonicated in an ultrasonic sonicator for 10 min to ensure proper liposome formation. Test samples or standard, ascorbic acid (100 μL) of different concentrations (10, 20, 30, 40 50 and 100 μg/mL) was added to liposome mixture (1 mL); the control was without test sample. Lipid peroxidation was induced by adding ferric chloride (10 μL, 400 mM) and L-ascorbic acid (10 μL, 200 mM). After incubation for 1 h at 37 °C, the reaction was stopped by adding hydrochloric acid (2 mL, 0.25 N) containing trichloroacetic acid (150 mg/mL), thiobarbituric acid (3.75 mg/mL) and butylated hydroxy anisole (0.50 mg/mL). The reaction mixture was subsequently boiled for 15 min, cooled and centrifuged at 1,000 rpm for 15 min, and the absorbance of the supernatant was measured at 532 nm (Duh and Yen, [1997]). The % inhibition at different concentrations was calculated by the following formula %Inhibition=[1-(Vt/Vc)]×100 where V t = mean absorption of test compound, V c = mean absorption of control.
The IC50 (nM/mL) value was derived from the % inhibition at different concentrations.

[4] = tested on: BT474 (breast cancer cell line); test: In vitro cytotoxicity by MTT assay, BT474; format: cell-based; conditions: Homo sapiens, 72 h; for cytotoxicity at 0.005 µM: BT-474, 0.005 μM; for cytotoxicity at 0.005 µM / cytotoxicity at 0.015 µM / cytotoxicity at 0.045 µM / cytotoxicity at 0.13 µM / cytotoxicity at 0.41 µM / cytotoxicity at 1.23 µM / cytotoxicity at 3.7 µM / cytotoxicity at 11.11 µM / cytotoxicity at 33.33 µM / cytotoxicity at 100 µM: read-out: % cytotoxicity (100 − % cell survival) of BT474 cell line; for cytotoxicity at 0.015 µM: BT-474, 0.015 μM; for cytotoxicity at 0.045 µM: BT-474, 0.045 μM; for cytotoxicity at 0.13 µM: BT-474, 0.13 μM; for cytotoxicity at 0.41 µM: BT-474, 0.41 μM; for cytotoxicity at 1.23 µM: BT-474, 1.23 μM; for cytotoxicity at 3.7 µM: BT-474, 3.7 μM; for cytotoxicity at 11.11 µM: BT-474, 11.11 μM; for cytotoxicity at 33.33 µM: BT-474, 33.33 μM; for cytotoxicity at 100 µM: BT-474, 100 μM; for CC50: BT-474, BT474, concentration at which 50 % of the cells are dead, read-out: CTC50 (cytotoxicity concentration)
In short: as §1

SMILES: O=C(NS(=O)(=O)c1nnc(N=Cc2ccc(O)cc2)s1)c1ccccc1 [Compound 9e, N-({5-[(4-Hydroxybenzylidene)amino]-1,3,4-thiadiazol-2-yl}sulfonyl)benzamide]
- Aberrant cells (%) ± SEM [1]: 26.74 ± 6.56%
- Chromosome breaks (%) ± SEM [1]: 2.72 ± 0.94%
- MNC (‰) ± SEM (micronuclei per 1,000 cells) [1]: 0.21 ± 0.06 ‰
- Polar deviations (%) ± SEM [1]: 8.41 ± 1.35%
- Stickiness (%) ± SEM [1]: 9.88 ± 1.46%
- MI (%) ± SEM (mitotic index) [1]: 1.27 ± 0.11%
- cytotoxicity at 72 h, 0.015 µM [2]: 40.3%
- IC50 [3]: 134 ± 14.7 µM
- cytotoxicity at 0.005 µM [4]: 25.2%
- cytotoxicity at 0.015 µM [4]: 26.4%
- cytotoxicity at 0.045 µM [4]: 27.3%
- cytotoxicity at 0.13 µM [4]: 28.9%
- cytotoxicity at 0.41 µM [4]: 29.9%
- cytotoxicity at 1.23 µM [4]: 31.9%
- cytotoxicity at 3.7 µM [4]: 37.9%
- cytotoxicity at 11.11 µM [4]: 41.8%
- cytotoxicity at 33.33 µM [4]: 47.5%
- cytotoxicity at 100 µM [4]: 56.2%

SMILES: COc1ccccc1C=Nc1nnc(S(=O)(=O)NC(=O)c2ccccc2)s1 [Compound 9c, N-({5-[(2-Methoxybenzylidene)amino]-1,3,4-thiadiazol-2-yl}sulfonyl)benzamide]
- Aberrant cells (%) ± SEM [1]: 38.54 ± 8.18%
- MNC (‰) ± SEM (micronuclei per 1,000 cells) [1]: 0.36 ± 0.14 ‰
- Polar deviations (%) ± SEM [1]: 7.22 ± 2.61%
- Stickiness (%) ± SEM [1]: 28.04 ± 6.34%
- MI (%) ± SEM (mitotic index) [1]: 0.53 ± 0.03%
- cytotoxicity at 72 h, 0.015 µM [2]: 33.2%
- IC50 [3]: 102 ± 14.5 µM
- cytotoxicity at 0.005 µM [4]: 38.1%
- cytotoxicity at 0.015 µM [4]: 41.5%
- cytotoxicity at 0.045 µM [4]: 42.6%
- cytotoxicity at 0.13 µM [4]: 44.4%
- cytotoxicity at 0.41 µM [4]: 47%
- cytotoxicity at 1.23 µM [4]: 50.4%
- cytotoxicity at 3.7 µM [4]: 53.6%
- cytotoxicity at 11.11 µM [4]: 54.8%
- cytotoxicity at 33.33 µM [4]: 58.8%
- cytotoxicity at 100 µM [4]: 67.1%
- CC50 [4]: 0.794 µM

SMILES: O=C(NS(=O)(=O)c1nnc(N=Cc2ccccc2O)s1)c1ccccc1 [Compound 9f, N-({5-[(2-Hydroxybenzylidene)amino]-1,3,4-thiadiazol-2-yl}sulfonyl)benzamide]
- average root length ([1]; after 72 h of treatment, negative control 3.93 cm): 1.06 cm
- Aberrant cells (%) ± SEM [1]: 33.41 ± 9.47%
- Chromosome breaks (%) ± SEM [1]: 1.47 ± 0.13%
- MNC (‰) ± SEM (micronuclei per 1,000 cells) [1]: 0.39 ± 0.20 ‰
- Polar deviations (%) ± SEM [1]: 7.33 ± 2.52%
- Stickiness (%) ± SEM [1]: 21.96 ± 7.22%
- cytotoxicity at 72 h, 0.015 µM [2]: 31.2%
- IC50 [3]: 204 ± 20.1 µM
- cytotoxicity at 0.005 µM [4]: 30.6%
- cytotoxicity at 0.015 µM [4]: 32.6%
- cytotoxicity at 0.045 µM [4]: 33.9%
- cytotoxicity at 0.13 µM [4]: 34.8%
- cytotoxicity at 0.41 µM [4]: 34.8%
- cytotoxicity at 1.23 µM [4]: 35.5%
- cytotoxicity at 3.7 µM [4]: 35.8%
- cytotoxicity at 11.11 µM [4]: 36.1%
- cytotoxicity at 33.33 µM [4]: 38.2%
- cytotoxicity at 100 µM [4]: 38.7%

SMILES: O=C(NS(=O)(=O)c1nnc(N=Cc2ccc(Cl)cc2)s1)c1ccccc1 [Compound 9b, N-({5-[(4-Chlorobenzylidene)amino]-1,3,4-thiadiazol-2-yl}sulfonyl)benzamide]
- Aberrant cells (%) ± SEM [1]: 24.64 ± 7.01%
- Chromosome breaks (%) ± SEM [1]: 3.36 ± 0.57%
- MNC (‰) ± SEM (micronuclei per 1,000 cells) [1]: 0.42 ± 0.18 ‰
- Polar deviations (%) ± SEM [1]: 7.32 ± 1.24%
- Stickiness (%) ± SEM [1]: 9.12 ± 1.33%
- MI (%) ± SEM (mitotic index) [1]: 2.77 ± 0.19%
- cytotoxicity at 72 h, 0.015 µM [2]: 29.5%
- IC50 [3]: 133 ± 11.5 µM
- cytotoxicity at 0.005 µM [4]: 38.8%
- cytotoxicity at 0.015 µM [4]: 39.4%
- cytotoxicity at 0.045 µM [4]: 41.5%
- cytotoxicity at 0.13 µM [4]: 42%
- cytotoxicity at 0.41 µM [4]: 46.1%
- cytotoxicity at 1.23 µM [4]: 50.1%
- cytotoxicity at 3.7 µM [4]: 56.3%
- cytotoxicity at 11.11 µM [4]: 60.7%
- cytotoxicity at 33.33 µM [4]: 62.3%
- cytotoxicity at 100 µM [4]: 65%
- CC50 [4]: 2.41 µM

SMILES: COc1cc(C=Nc2nnc(S(=O)(=O)NC(=O)c3ccccc3)s2)ccc1O [Compound 9g, N-({5-[(4-Hydroxy-3-methoxybenzylidene)amino]-1,3,4-thiadiazol-2-yl}sulfonyl)benzamide]
- Aberrant cells (%) ± SEM [1]: 40.48 ± 12.94%
- MNC (‰) ± SEM (micronuclei per 1,000 cells) [1]: 0.48 ± 0.32 ‰
- Polar deviations (%) ± SEM [1]: 10.26 ± 2.13%
- Stickiness (%) ± SEM [1]: 32.24 ± 6.92%
- MI (%) ± SEM (mitotic index) [1]: 0.41 ± 0.04%
- cytotoxicity at 72 h, 0.015 µM [2]: 33.2%
- cytotoxicity at 0.005 µM [4]: 27.4%
- cytotoxicity at 0.015 µM [4]: 28%
- cytotoxicity at 0.045 µM [4]: 28.7%
- cytotoxicity at 0.13 µM [4]: 29.2%
- cytotoxicity at 0.41 µM [4]: 31.4%
- cytotoxicity at 1.23 µM [4]: 32.8%
- cytotoxicity at 3.7 µM [4]: 33.2%
- cytotoxicity at 11.11 µM [4]: 34.7%
- cytotoxicity at 33.33 µM [4]: 36.2%
- cytotoxicity at 100 µM [4]: 38.1%

SMILES: CN(C)c1ccc(C=Nc2nnc(S(=O)(=O)NC(=O)c3ccccc3)s2)cc1 [Compound 9h, N-[(5-{[4-(Dimethylamino)benzylidene]amino}-1,3,4-thiadiazol-2-yl)sulfonyl]benzamide]
- Aberrant cells (%) ± SEM [1]: 29.83 ± 5.03%
- Chromosome breaks (%) ± SEM [1]: 2.43 ± 0.67%
- MNC (‰) ± SEM (micronuclei per 1,000 cells) [1]: 0.31 ± 0.14 ‰
- Polar deviations (%) ± SEM [1]: 8.91 ± 1.56%
- Stickiness (%) ± SEM [1]: 16.50 ± 3.23%
- MI (%) ± SEM (mitotic index) [1]: 1.07 ± 0.13%
- cytotoxicity at 72 h, 0.015 µM [2]: 35%
- cytotoxicity at 0.005 µM [4]: 29%
- cytotoxicity at 0.015 µM [4]: 29.1%
- cytotoxicity at 0.045 µM [4]: 30.6%
- cytotoxicity at 0.13 µM [4]: 32.9%
- cytotoxicity at 0.41 µM [4]: 33.8%
- cytotoxicity at 1.23 µM [4]: 34.2%
- cytotoxicity at 3.7 µM [4]: 35.2%
- cytotoxicity at 11.11 µM [4]: 38.4%
- cytotoxicity at 33.33 µM [4]: 41.5%
- cytotoxicity at 100 µM [4]: 47.7%
